# Results as given in US20260356957A1, “METHODS FOR TREATMENT OF NON-SMALL CELL LUNG CANCER (NSCLC)” (Janssen Biotech, Inc., priority 2023, published 2026).
# Key:
# [1] = test system: EGFR-mutated NSCLC; conditions: all prespecified subgroups; cited from earlier work
# [2] = test system: EGFR-mutated locally advanced or metastatic NSCLC; test: MARIPOSA Phase 3, overall survival; type: in vivo, human
# [3] = test system: EGFR-mutated locally advanced or metastatic NSCLC; test: MARIPOSA Phase 3, duration of response by BICR; type: in vivo, human; conditions: confirmed responders
# [4] = test system: EGFR-mutated locally advanced or metastatic NSCLC; test: MARIPOSA Phase 3, objective response by BICR (RECIST v1.1); type: in vivo, human; conditions: best overall response
# [5] = test system: EGFR-mutated locally advanced or metastatic NSCLC; test: MARIPOSA Phase 3, progression-free survival after first subsequent therapy (PFS2); type: in vivo, human
# From the text: The efficacy population included all patients who had undergone randomization. Tick marks indicate censoring of data. […]
# [6] = test system: EGFR-mutated NSCLC with brain metastasis; test: MARIPOSA Phase 3, intracranial PFS by BICR in participants with history of brain metastasis; type: in vivo, human
# From the text: • 1. […] Intracranial PFS [Time Frame: Up to approximately 42 months]. […] Incidence and Severity of Adverse Events (AEs) [Time Frame: Up to approximately 60 months]. Incidence and severity of treatment emergent adverse events (TEAEs) will be reported. Any adverse event occurring at or after the initial administration of study treatment through the day of last dose plus 30 days, or until the start of subsequent anticancer therapy (if earlier), is considered to be treatment emergent. • 8. Number of Participants with Clinical Laboratory Abnormalities [Time Frame: Up to approximately 60 months]. Number of participants with clinical laboratory abnormalities (serum chemistry, hematology, blood coagulation, and urine samples) will be reported. • 9. Number of Participants with Vital Signs Abnormalities [Time Frame: Up to approximately 60 months]. Number of participants with vital signs abnormalities (temperature, heart rate, respiratory rate, oxygen saturation, blood pressure) will be reported. • 10. Number of Participants with Physical Examination Abnormalities [Time Frame: Up to approximately 60 months]. Number of participants with physical examination abnormalities will be reported. • 11. […] Number of Participants with Anti-Amivantamab Antibodies [Time Frame: Up to approximately 42 months]. […] Change from Baseline in Non-Small Cell Lung Cancer-Symptom Assessment Questionnaire (NCSLC-SAQ) [Time Frame: Baseline Up to approximately 42 months]. The NSCLC-SAQ contains 7 items that assess cough, pain, dyspnea, fatigue, and poor appetite over a 7-day recall period. Each multi-item scale and individual item will be summarized using count and percent by visit. • 15. Change from Baseline in European Organization of Research and Treatment of Cancer Quality of Life Questionnaire Core 30 (EORTC-QLQ-C30) [Time Frame: Baseline Up to approximately 42 months]. EORTC-QLQ-C30 is a core 30-item questionnaire for evaluating the health-related quality of life (HRQOL) of participants participating in cancer clinical studies. • 16.
# [7] = test system: EGFR-mutated locally advanced or metastatic NSCLC; test: MARIPOSA Phase 3, progression-free survival by BICR; type: in vivo, human
# From the text: The primary endpoint of the study is PFS (using RECIST v1.1 guidelines) as assessed by blinded independent central review (BICR).
# [8] = test system: EGFR-mutated locally advanced or metastatic NSCLC; test: MARIPOSA Phase 3, time to symptomatic progression (TTSP); type: in vivo, human
# [9] = test system: EGFR-mutated locally advanced or metastatic NSCLC; test: MARIPOSA Phase 3, time to subsequent therapy (TTST) and subsequent therapy; type: in vivo, human
# [10] = MARIPOSA Phase 3, adverse events; type: in vivo, human; conditions: in vivo
# From the text: • 1. […] Incidence and Severity of Adverse Events (AEs) [Time Frame: Up to approximately 60 months]. Incidence and severity of treatment emergent adverse events (TEAEs) will be reported. Any adverse event occurring at or after the initial administration of study treatment through the day of last dose plus 30 days, or until the start of subsequent anticancer therapy (if earlier), is considered to be treatment emergent. • 8. Number of Participants with Clinical Laboratory Abnormalities [Time Frame: Up to approximately 60 months]. Number of participants with clinical laboratory abnormalities (serum chemistry, hematology, blood coagulation, and urine samples) will be reported. • 9. Number of Participants with Vital Signs Abnormalities [Time Frame: Up to approximately 60 months]. Number of participants with vital signs abnormalities (temperature, heart rate, respiratory rate, oxygen saturation, blood pressure) will be reported. • 10. Number of Participants with Physical Examination Abnormalities [Time Frame: Up to approximately 60 months]. Number of participants with physical examination abnormalities will be reported. • 11. […] The NSCLC-SAQ contains 7 items that assess cough, pain, dyspnea, fatigue, and poor appetite over a 7-day recall period. Each multi-item scale and individual item will be summarized using count and percent by visit. • 15. […] EORTC-QLQ-C30 is a core 30-item questionnaire for evaluating the health-related quality of life (HRQOL) of participants participating in cancer clinical studies. • 16.
molecule,measurement,setting,value
"C=CC(=O)Nc1cc(Nc2nccc(-n3cc(CN(C)C)c(-c4ccccc4)n3)n2)c(OC)cc1N1CCOCC1 [Lazertinib, N-(5-(4-(4-((dimethylamino)methyl)-3-phenyl-1H-pyrazol-1-yl)pyrimidin-2-ylamino)-4-methoxy-2-morpholinophenyl) acrylamide]",PFS vs gefitinib,[1],improved PFS compared to the first generation EGFR TKI gefitinib in all prespecified subgroups
same,Censored (OS),[2]; Full Analysis Set,160 (74.1%) (%)
same,Event (OS),[2]; Full Analysis Set,56 (25.9%) (%)
same,OS 12-month event-free rate (95% CI),[2]; Full Analysis Set,"0.86 (0.81, 0.90)"
same,OS 18-month event-free rate (95% CI),[2]; Full Analysis Set,"0.78 (0.71, 0.83)"
same,OS 24-month event-free rate (95% CI),[2]; Full Analysis Set,"0.71 (0.61, 0.78)"
same,OS 30-month event-free rate (95% CI),[2]; Full Analysis Set,"0.68 (0.58, 0.75)"
same,"OS time to event, 75th percentile (95% CI)",[2]; NE = not estimable,"NE (NE, NE)"
same,Median overall survival (95% CI),"[2]; interim analysis, NE = not estimable","NE (NE, NE)"
same,Censored (DOR),[3],77 (48.1%) (%)
same,Event (DOR),[3],83 (51.9%) (%)
same,"DOR time to event, 75th percentile (95% CI)",[3]; NE = not estimable,"NE (NE, NE)"
same,Complete Response (CR),[4],9 (4.2%) (%)
same,Not Evaluable (NE),[4],5 (2.3%) (%)
same,Progressive Disease (PD),[4],9 (4.2%) (%)
same,Event (PFS2),[5]; Full Analysis Set,58 (26.9%) (%)
same,"PFS2 time to event, 75th percentile (95% CI)",[5]; NE = not estimable,"NE (28.94, NE)"
same,Event (intracranial PFS),[6],37 (43.0%) (%)
same,"Intracranial PFS time to event, 75th percentile (95% CI)",[6]; NE = not estimable,"NE (22.67, NE)"
same,PFS 6-month event-free rate (95% CI),[7],"0.85 (0.79, 0.89)"
same,PFS 18-month event-free rate (95% CI),[7],"0.52 (0.44, 0.58)"
same,PFS 24-month event-free rate (95% CI),[7],"0.35 (0.27, 0.42)"
same,PFS 30-month event-free rate (95% CI),[7],"0.30 (0.22, 0.39)"
same,Censored (PFS),[7]; Full Analysis Set,95 (44.0%) (%)
same,"PFS time to event, 75th percentile (95% CI)",[7]; Full Analysis Set,"NE (24.05, NE)"
same,Death without Symptomatic PD,[8]; Full Analysis Set,24 (11.1%) (%)
same,Event (TTSP),[8]; Full Analysis Set,70 (22.4%) (%)
same,TTSP 6-month event-free rate (95% CI),[8]; Full Analysis Set,"0.90 (0.85, 0.93)"
same,TTSP 12-month event-free rate (95% CI),[8]; Full Analysis Set,"0.79 (0.72, 0.84)"
same,TTSP 18-month event-free rate (95% CI),[8]; Full Analysis Set,"0.71 (0.64, 0.76)"
same,TTSP 24-month event-free rate (95% CI),[8]; Full Analysis Set,"0.65 (0.58, 0.72)"
same,TTSP 30-month event-free rate (95% CI),[8]; Full Analysis Set,"0.61 (0.52, 0.69)"
same,"TTSP time to event, 25th percentile (95% CI)",[8]; Full Analysis Set,"13.80 (10.41, 18.56) months"
same,TTSP Median (95% CI),[8]; NE = not estimable,"NE (NE, NE)"
same,"TTSP time to event, 75th percentile (95% CI)",[8]; NE = not estimable,"NE (NE, NE)"
same,TTST 6-month event-free rate (95% CI),[9]; Full Analysis Set,"0.90 (0.85, 0.93)"
same,TTST 12-month event-free rate (95% CI),[9]; Full Analysis Set,"0.71 (0.66, 0.78)"
same,TTST 18-month event-free rate (95% CI),[9]; Full Analysis Set,"0.60 (0.53, 0.66)"
same,TTST 24-month event-free rate (95% CI),[9]; Full Analysis Set,"0.50 (0.43, 0.58)"
same,"TTST time to event, 75th percentile (95% CI)",[9]; NE = not estimable,"NE (NE , NE)"
same,Safety profile,[10],"well defined and tolerable, and largely consistent with that seen with other 3rd generation EGFR TKI"
"Amivantamab: IgG1 anti-EGFR/c-Met bispecific antibody described in U.S. Pat. No. 9,593,164; SEQ ID NO: 1-20",Safety profile,[10],"well defined and tolerable, largely consistent with its on-target activity against the EGFR and MET pathways"
